Reference: US9266835B2, “Quinoline derivatives useful as CB-1 inverse agonists” (JANSSEN PHARMACEUTICA NV, priority 2014, dated 2016)

Legend:
[1] = molecular target: Human CB1R (Cannabinoid receptor 1) (Homo sapiens (Human), UniProt P21554); assay: CB-1 in vitro cAMP assay (HTRF), inverse agonism; assay type: cell-based; conditions: mean where tested more than once
Text: (§1) CB1 and CB2 receptors are Gi-coupled GPCR. Activation of CB1 and CB2 receptors results in a decrease in cAMP production. An inverse agonist of the CB1 or CB2 receptor results in the opposite effect, an increase of cAMP production. The principle of this assay is based on HTRF® technology (Homogeneous Time-Resolved Fluorescence). The method is a competitive immunoassay between native cAMP produced by cells and the cAMP labeled with the fluorophore d2. The tracer binding is quantified by a Mab anti-cAMP labeled with Eu3+TBP-NHS Cryptate (supplied as part of the assay kit). The specific signal (i.e. energy transfer) is inversely proportional to the concentration of cAMP in the standard or sample.
(§2) Human CB1R (Cannabinoid receptor 1) was stably transfected in HEK-293 cells (DiscoveRx, cat: 93-0200C1). Human CB2R (Cannabinoid receptor 2) was stably transfected in HEK-293 cells (DiscoveRx, cat: 93-0201C1). Cell cultures were maintained in media: DMEM (Invitrogen Cat#12430-054) supplemented with 10% HI FBS (Invitrogen Cat#16140-071), 1% L-glutamine (Invitrogen Cat#25030-081), 0.2 mg/ml Hygromycin B (Invitrogen Cat#10687-010), 600 μg/mL G418 (Invitrogen Cat#10131-035), and 1X Penn/Strep (Invitrogen 15140-122). After cell expansion, aliquots were cryo-stored in media containing 5% DMSO (Pierce Cat#20684).
(§3) One day prior to experiments media was warmed to 37° C. and the cryo-stored cells were thawed in a 37° C. water bath. The cells were then added to media (10× volume) and the mixture was centrifuged at 1000 RPM for 5 min. The supernate was removed and the cells were re-suspended in media. A sample of the cell suspension was evaluated on a Cedex XS automated cell counter (Innovatis Systems) to determine viable cells/ml. Additional media was added to the cells to achieve a final cell density of 4E5 cells/mL. The cells were then plated into 384 well PDL white solid bottom plates (Greiner, Cat#781945) at 20 μL per well using a Multidrop (Thermo Scientific). Cells were removed from Row P (location of cAMP standards). Two columns of cells were plated into a clear bottom 384 well PDL coated plate (Greiner, Cat#781944) to view confluence the day of the assay. The cell plates were lidded and stored for 15 minutes in a hood, then transferred to an incubator (37° C., 5% CO2, 95% humidity) overnight.
(§4) DMSO was added to all wells of 384 well V bottom polystyrene plate (Greiner, Cat#781280) except to columns 1 and 13, rows 0 and P and wells M13-M23 and N13-N23. Test compounds (60 μL, 10 mM) were added to Column 1 and 13 (A1 through N1 and A13 through L13). Test compounds were serially diluted 1/3 by transferring and mixing 20 μl sample with 40 μL DMSO.
(§5) DMSO (40 μL) was added to wells of 384 well V bottom polystyrene plate: O2 through O11, M14 through M23, N14 through N23, and O14 through O23. AM630 (also known as [6-iodo-2-methyl-1-[2-(4-morpholinyl)ethyl]-1H-indol-3-yl](4-methoxyphenyl)-methanone, Cayman Chemical, Cat#10006974) (60 μL, 10 mM) was added to 01; and 1-(2,4-dichlorophenyl)-7-[(4-fluorophenyl)methylene]-4,5,6,7-tetrahydro-N-1-piperidinyl-1H-indazole-3-carboxamide (60 μL, 10 mM) was added to N13. The control was serially diluted 1/3 by transferring and mixing 20 μl sample with 40 μL DMSO. This process resulted 11 doses per control, 10 mM to […].
(§6) Cells plated the day prior to the assay in clear bottom plates were viewed on an inverse microscope to ensure confluency in the range of 60-75%. […]

[2] = molecular target: Human CB2R (Cannabinoid receptor 2) (Homo sapiens (Human), UniProt P34972); assay: CB-2 in vitro cAMP assay (HTRF), inverse agonism; assay type: cell-based; conditions: mean where tested more than once
Text: as §1, §2, §3, §4, §5, §6

Human CB1R (Cannabinoid receptor 1), sequence (P21554 whole entry): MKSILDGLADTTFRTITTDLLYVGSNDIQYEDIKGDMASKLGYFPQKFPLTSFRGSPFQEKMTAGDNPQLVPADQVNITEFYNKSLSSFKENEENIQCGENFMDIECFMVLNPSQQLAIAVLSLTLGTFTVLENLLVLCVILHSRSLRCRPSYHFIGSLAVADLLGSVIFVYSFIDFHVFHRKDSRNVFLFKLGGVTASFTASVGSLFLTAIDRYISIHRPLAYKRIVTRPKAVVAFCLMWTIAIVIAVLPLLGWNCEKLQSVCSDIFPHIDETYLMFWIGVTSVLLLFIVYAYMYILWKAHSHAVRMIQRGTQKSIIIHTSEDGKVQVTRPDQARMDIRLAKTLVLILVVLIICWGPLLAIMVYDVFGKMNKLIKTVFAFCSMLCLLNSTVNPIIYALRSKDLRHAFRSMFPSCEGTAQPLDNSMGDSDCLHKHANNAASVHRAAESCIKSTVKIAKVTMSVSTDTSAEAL
Human CB2R (Cannabinoid receptor 2), sequence (P34972 whole entry): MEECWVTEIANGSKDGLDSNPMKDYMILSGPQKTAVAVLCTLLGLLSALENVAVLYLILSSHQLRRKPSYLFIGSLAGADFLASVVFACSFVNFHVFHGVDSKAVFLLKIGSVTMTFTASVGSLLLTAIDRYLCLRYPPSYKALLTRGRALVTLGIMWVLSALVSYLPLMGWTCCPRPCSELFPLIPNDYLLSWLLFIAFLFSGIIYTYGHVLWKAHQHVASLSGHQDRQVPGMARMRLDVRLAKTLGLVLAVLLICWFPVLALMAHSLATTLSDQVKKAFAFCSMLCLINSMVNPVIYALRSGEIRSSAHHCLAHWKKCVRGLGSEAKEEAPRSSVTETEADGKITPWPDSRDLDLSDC

Compound | EC50 [1] [nM] | EC50 [2] [nM]
COc1cc(NC2CCN(S(=O)(=O)C(F)(F)F)CC2)c2cc(C(c3ccc(Cl)cc3)c3ccc(Cl)cc3)cc(/C=C/CO)c2n1 [Compound 549, (2E)-3-[6-[bis(4-chlorophenyl)methyl]-2-methoxy-4-[[1-(trifluoromethane)sulfonylpiperidin-4-yl]amino]quinolin-8-yl]prop-2-en-1-ol] | 36 | 3800
CCOC(=O)CCCNc1cc(C(O)(c2ccc(Cl)cc2)c2ccc(Cl)cc2)cc2c(NC3CCN(S(=O)(=O)C(F)(F)F)CC3)cc(OC(C)(C)C)nc12 [Compound 529, Ethyl 4-({6-[bis(4-chlorophenyl)(hydroxy)methyl]-2-tert-butoxy-4-({1-[(trifluoromethyl)sulfonyl]-piperidin-4-yl}amino)quinolin-8-yl}amino)butanoate] | > 10000 | > 10000
O=C(O)c1ccc(S(=O)(=O)N2CCC(Nc3cc(=O)[nH]c4ccc(C(c5ccc(Cl)cc5)c5ccc(Cl)cc5)cc34)CC2)o1 [Compound 131, 5-{[4-({6-[Bis(4-chlorophenyl)methyl]-2-oxo-1,2-dihydroquinolin-4-yl}amino)piperidin-1-yl]sulfonyl}furan-2-carboxylic acid] | 251 | 3930
CCOC(=O)CCC(=O)N1CCC(Nc2cc(=O)[nH]c3ccc(C(c4ccc(Cl)cc4)c4ccc(Cl)cc4)cc23)CC1 [Compound 97, ethyl 4-[4-([6-[bis(4-chlorophenyl)methyl]-2-hydroxyquinolin-4-yl]amino)piperidin-1-yl]-4-oxobutanoate] | 31 | 9900
O=c1cc(/C=C/c2ccccc2)c2cc(C(c3ccc(Cl)cc3)c3ccc(Cl)s3)ccc2[nH]1 (stereo not drawn) [Compound 31, 6-[(4-Chlorophenyl)(5-chlorothiophen-2-yl)methyl]-4-[(E)-2-phenylethenyl]quinolin-2(1H)-one] | 2280 | > 10000
O=C(O)c1cccc(S(=O)(=O)N2CCC(Nc3cc(=O)[nH]c4ccc(C(c5ccc(Cl)cc5)c5ccc(Cl)cc5)cc34)CC2)c1 [Compound 84, 3-{[4-({6-[Bis(4-chlorophenyl)methyl]-2-oxo-1,2-dihydroquinolin-4-yl}amino)piperidin-1-yl]sulfonyl}benzoic acid] | 269 | 8960
O=c1cc(NC2CCN(S(=O)(=O)C(F)(F)F)CC2)c2cc(C(O)(c3ccc(F)cc3)c3ccc(Cl)cc3)ccc2[nH]1 (stereo not drawn) [Compound 50, 6-[(4-Chlorophenyl)(4-fluorophenyl)hydroxymethyl]-4-({1-[(trifluoromethyl)sulfonyl]-piperidin-4-yl}amino)quinolin-2(1H)-one] | 530 | 9700
O=c1cc(NC2CCN(S(=O)(=O)N3CCCC3)CC2)c2cc(C(c3ccc(Cl)cc3)c3ccc(Cl)cc3)ccc2[nH]1 [Compound 81, 6-(bis(4-chlorophenyl)methyl)-4-((1-(pyrrolidin-1-ylsulfonyl)piperidin-4-yl)amino)quinolin-2(1H)-one] | 15 | > 10000
O=C(O)CCCNc1cc(C(c2ccc(Cl)cc2)c2ccc(Cl)cc2)cc2c(NC3CCN(S(=O)(=O)C(F)(F)F)CC3)cc(=O)[nH]c12 [Compound 108, 4-((6-(bis(4-chlorophenyl)methyl)-2-oxo-4-((1-((trifluoromethyl)sulfonyl)piperidin-4-yl)amino)-1,2-dihydroquinolin-8-yl)amino)butanoic acid] | 310 | 460
O=c1cc(NC2CCN(S(=O)(=O)C(F)(F)F)CC2)c2cc(C(c3ccc(Cl)cc3)c3ccc(Cl)c(Cl)c3)ccc2[nH]1 (stereo not drawn) [Compound #53, 6-[(4-chlorophenyl)(3,4-dichlorophenyl)methyl]-4-[[1-(trifluoromethane)sulfonylpiperidin-4-yl]amino]-1,2-dihydroquinolin-2-one] | 20 | > 14000

Next, values leading:

EC50 [1] [nM] | EC50 [2] [nM] | Compound
> 10000 | > 10000 | OC(c1ccc(Cl)cc1)(c1ccc(Cl)cc1)c1ccc2nccc(/C=C/c3ccccc3)c2c1 [Compound 501, (E)-bis(4-chlorophenyl)(4-styrylquinolin-6-yl)methanol]
5480 | > 10000 | OC(c1ccc(Cl)cc1)(c1ccsc1)c1ccc2nccc(/C=C/c3ccccc3)c2c1 (stereo not drawn) [Compound 507, (4-Chlorophenyl){4-[(E)-2-phenylethenyl]quinolin-6-yl}thiophen-3-ylmethanol]
31 | 115 | COc1cc(NC2CCN(S(=O)(=O)C(F)(F)F)CC2)c2cc(C(c3ccc(Cl)cc3)c3ccc(Cl)cc3)cc(CCCO)c2n1 [Compound 550, 3-(6-(bis(4-chlorophenyl)methyl)-2-methoxy-4-((1-((trifluoromethyl)sulfonyl)piperidin-4-yl)amino)quinolin-8-yl)propan-1-ol]
876 | > 10000 | O=c1cc(CCc2cccc(Cl)c2)c2cc(C(O)(c3ccc(Cl)cc3)c3nccs3)ccc2[nH]1 (stereo not drawn) [Compound 8, 4-(3-chlorophenethyl)-6-((4-chlorophenyl)(hydroxy)(thiazol-2-yl)methyl)quinolin-2(1H)-one]
438 | > 10000 | O=C(O)c1ccc(C(=O)N2CCC(Nc3cc(=O)[nH]c4ccc(C(c5ccc(Cl)cc5)c5ccc(Cl)cc5)cc34)CC2)cc1 [Compound 116, 4-{[4-({6-[Bis(4-chlorophenyl)methyl]-2-oxo-1,2-dihydroquinolin-4-yl}amino)piperidin-1-yl]carbonyl}benzoic acid]
58 | > 42000 | COCCCc1cc(C(c2ccc(Cl)cc2)c2ccc(Cl)cc2)cc2c(NC3CCN(S(=O)(=O)C(F)(F)F)CC3)cc(OC)nc12 [Compound 548, 6-[bis(4-chlorophenyl)methyl]-2-methoxy-8-(3-methoxypropyl)-N-[1-(trifluoromethane)sulfonylpiperidin-4-yl]quinolin-4-amine]
36 | > 42000 | COC/C=C/c1cc(C(c2ccc(Cl)cc2)c2ccc(Cl)cc2)cc2c(NC3CCN(S(=O)(=O)C(F)(F)F)CC3)cc(OC)nc12 [Compound 547, 6-(bis(4-chlorophenyl)methyl)-2-methoxy-8-(3-methoxyprop-1-en-1-yl)-N-(1-((trifluoromethyl)sulfonyl)piperidin-4-yl)quinolin-4-amine]
293 | 9700 | O=C(O)c1ccc(CN2CCC(Nc3cc(=O)[nH]c4ccc(C(c5ccc(Cl)cc5)c5ccc(Cl)cc5)cc34)CC2)s1 [Compound 128, 5-{[4-({6-[Bis(4-chlorophenyl)methyl]-2-oxo-1,2-dihydroquinolin-4-yl}amino)piperidin-1-yl]methyl}thiophene-2-carboxylic acid]
103 | > 10000 | CC(C)(C)OC(=O)CCN1CCC(Nc2cc(=O)[nH]c3ccc(C(c4ccc(Cl)cc4)c4ccc(Cl)cc4)cc23)CC1 [Compound 114, tert-butyl 3-(4-((6-(bis(4-chlorophenyl)methyl)-2-oxo-1,2-dihydroquinolin-4-yl)amino)piperidin-1-yl)propanoate]
17 | > 10000 | CCOC(=O)CS(=O)(=O)N1CCC(Nc2cc(=O)[nH]c3ccc(C(c4ccc(Cl)cc4)c4ccc(Cl)cc4)cc23)CC1 [Compound 102, ethyl 2-((4-((6-(bis(4-chlorophenyl)methyl)-2-oxo-1,2-dihydroquinolin-4-yl)amino)piperidin-1-yl)sulfonyl)acetate]
403 | > 10000 | CC(C)(C)OC(=O)N1CC=C(c2cc(=O)[nH]c3ccc(C(c4ccc(Cl)cc4)c4ccc(Cl)cc4)cc23)CC1 [Compound 13, tert-Butyl 4-{6-[bis(4-chlorophenyl)methyl]-2-oxo-1,2-dihydroquinolin-4-yl}-3,6-dihydropyridine-1(2H)-carboxylate]
